These results are taken from patent US11285156B2, “Substituted piperazines as KRAS G12C inhibitors” (Amgen Inc., priority 2018, dated 2022).

Like-named read-outs stand apart in the source and are kept apart here.

The target of assay [1] is GDP-bound KRAS protein (aa 1-169), containing both G12C and C118A amino acid substitutions (Homo sapiens (Human), UniProt P01116, C118A/G12C). Nature of the assay: Coupled nucleotide exchange assay (SOS-mediated nucleotide exchange, AlphaScreen). Format: biochemical. The conditions noted are these: 5 min compound pre-incubation; for IC50: read-out: Coupled exchange IC50 (5 min; μM).

The test system of assay [2] is Phosphorylation of ERK1/2 in MIA PaCa-2 cells. Description: Phospho-ERK1/2 MSD assay in MIA PaCa-2 cells. Format: cell-based. The conditions noted are these: read-out: p-ERK IC50 (2 h, MiaPaCa-2; μM), 2 h compound treatment, MIA PaCa-2 cells, EGF stimulated. In short, it runs like this:
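Phospho-ERK1/2 measured by MSD electrochemiluminescence kit in RIPA lysates of MIA PaCa-2 cells. Cells were treated with compound titrations for 2 or 4 h at 37 °C, 5% CO2, followed by a 10 min pulse of 10 ng/mL EGF.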

Assay [3] relates to Phosphorylation of ERK1/2 in A549 cells. Description: Phospho-ERK1/2 MSD assay in A549 cells. The conditions noted are these: read-out: p-ERK IC50 (2 h, A549; μM), 2 h compound treatment, A549 cells, EGF stimulated. Format: cell-based. In short, it runs like this:
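Readout: MSD phospho-ERK1/2 signal after compound (2 or 4 h) and 10 min EGF stimulation at 10 ng/mL.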

Chain of GDP-bound KRAS protein (aa 1-169), containing both G12C and C118A amino acid substitutions (P01116 other isoform, or with tags, fused parts or gaps G12C/C118A): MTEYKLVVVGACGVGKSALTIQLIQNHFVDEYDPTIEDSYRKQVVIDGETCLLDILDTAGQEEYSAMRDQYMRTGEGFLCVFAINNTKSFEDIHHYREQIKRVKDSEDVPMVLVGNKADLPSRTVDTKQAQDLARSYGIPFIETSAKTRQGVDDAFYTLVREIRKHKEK

For the molecule `C=CC(=O)N1C[C@H](C)N(c2nc(=O)n(-c3c(C)ccnc3C(C)C)c3nc(-c4cccc(C#CC)c4)c(Cl)cc23)C[C@H]1C` (atropisomer, axis not shown; (M)) [Example 92-49, (M)-6-Chloro-4-[(2S,5R)-2,5-dimethyl-4-prop-2-enoyl-piperazin-1-yl]-1-(2-isopropyl-4-methyl-3-pyridyl)-7-(3-prop-1-ynylphenyl) pyrido[2,3-d]pyrimidin-2-one], the IC50 (commonly the concentration that gives 50% inhibition) in assay [1] was 0.123 µM; in assay [2] (Homo sapiens, MIA PaCa-2, 2 h), 0.328 µM; in assay [3] (Homo sapiens, A549, 2 h), greater than 7.5 µM.

As to `C=CC(=O)N1C[C@H](C)N(c2nc(=O)n(-c3c(C(C)C)cnn3C(C)C)c3nc(-c4ccccc4F)c(Cl)cc23)C[C@H]1C` [Example 100-1, 6-Chloro-1-(2,4-diisopropylpyrazol-3-yl)-4-[(2S,5R)-2,5-dimethyl-4-prop-2-enoyl-piperazin-1-yl]-7-(2-fluorophenyl)pyrido[2,3-d]pyrimidin-2-one], the IC50 was 0.084 µM in assay [1]; 0.123 µM in assay [2] (Homo sapiens, MIA PaCa-2, 2 h); greater than 7.5 µM in assay [3] (Homo sapiens, A549, 2 h).

For `C=CC(=O)N1[C@H](C)CN(c2nc(=O)n(-c3c(C)cc(N)nc3C(C)C)c3nc(-c4c(N)cccc4F)c(F)cc23)C[C@@H]1C` (single isomer, unassigned) [Example 123-6], the IC50 in assay [1] is 0.231 µM; in assay [2], 0.133 µM; in assay [3] (Homo sapiens, A549, 2 h) it was greater than 7.5 µM.

Regarding `C=CC(=O)N1C[C@H](C)N(c2nc(=O)n(-c3c(C)ccnc3C(C)C)c3nc(-c4cc(F)cc(F)c4N)c(Cl)cc23)C[C@H]1C` (atropisomer, axis not shown; (M)) [Example 92-26, (M)-7-(2-Amino-3,5-difluoro-phenyl)-6-chloro-4-[(2S,5R)-2,5-dimethyl-4-prop-2-enoyl-piperazin-1-yl]-1-(2-isopropyl-4-methyl-3-pyridyl)pyrido [2,3-d]pyrimidin-2-one], the IC50 in assay [1] is 0.101 µM; in assay [2] (Homo sapiens, MIA PaCa-2, 2 h), 0.023 µM; in assay [3] (Homo sapiens, A549, 2 h) it was greater than 7.5 µM.

Consider `C=CC(=O)N1C[C@H](C)N(c2nc(=O)n(-c3c(CN4CC(F)(F)C4)cccc3C(C)C)c3nc(-c4ccccc4F)c(Cl)cc23)C[C@H]1C` [Example 80-11, 6-chloro-1-[2-[(3,3-difluoroazetidin-1-yl)methyl]-6-isopropyl-phenyl]-4-[(2S,5R)-2,5-dimethyl-4-prop-2-enoyl-piperazin-1-yl]-7-(2-fluorophenyl)pyrido[2,3-d]pyrimidin-2-one], for which the IC50 is 0.078 µM in assay [1]; 0.222 µM in assay [2] (Homo sapiens, MIA PaCa-2, 2 h); greater than 7.5 µM in assay [3] (Homo sapiens, A549, 2 h).

For the molecule `C=CC(=O)N1CCN(c2nc(=O)n(-c3c(CN(C)C)cccc3C(C)C)c3nc(-c4ccccc4F)c(Cl)cc23)[C@@H](C)C1` [Example 80-13, 6-Chloro-1-[2-[(dimethylamino)methyl]-6-isopropyl-phenyl]-7-(2-fluorophenyl)-4-[(2S)-2-methyl-4-prop-2-enoyl-piperazin-1-yl]pyrido[2,3-d]pyrimidin-2-one], the IC50 in assay [1] was 0.043 µM; in assay [2] (Homo sapiens, MIA PaCa-2, 2 h) it was 0.053 µM; in assay [3] (Homo sapiens, A549, 2 h) it was greater than 7.5 µM.

In the case of `C=CC(=O)N1C[C@H](C)N(c2nc(=O)n(-c3c(C)cc([S+](C)[O-])cc3C(C)C)c3nc(-c4ccccc4C)c(Cl)cc23)C[C@H]1C` (single isomer, unassigned) [Example 213-3], in assay [1], the “Coupled exchange IC50 (5 min; μM)” value stood at 0.066 µM. Besides, the IC50 in assay [2] is 0.074 µM; in assay [3], greater than 7.5 µM.

With `C=CC(=O)N1C[C@H](C)N(c2nc(=O)n(-c3c(C)ccnc3C(C)C)c3nc(-c4ccccc4C(C)C)c(Cl)cc23)C[C@H]1C` (atropisomer, axis not shown; (M)) [Example 92-1, (M)-6-Chloro-4-[(2S,5R)-2,5-dimethyl-4-prop-2-enoyl-piperazin-1-yl]-1-(2-isopropyl-4-methyl-3-pyridyl)-7-(2-isopropylphenyl)pyrido[2,3-d]pyrimidin-2-one], the IC50 is 0.016 µM in assay [1], 0.014 µM in assay [2] and greater than 7.5 µM in assay [3].
